Experimental data taken from ChEMBL document CHEMBL2163275, “The lipogenesis pathway as a cancer target” (J Med Chem, 2011).

Assays:
[1] = biological target: T1, Fatty acid synthase (Homo sapiens, UniProt P49327); test: Inhibition of human recombinant FASN thioesterase domain
Target sequence in this assay (P49327 whole entry, the tested form may be a part): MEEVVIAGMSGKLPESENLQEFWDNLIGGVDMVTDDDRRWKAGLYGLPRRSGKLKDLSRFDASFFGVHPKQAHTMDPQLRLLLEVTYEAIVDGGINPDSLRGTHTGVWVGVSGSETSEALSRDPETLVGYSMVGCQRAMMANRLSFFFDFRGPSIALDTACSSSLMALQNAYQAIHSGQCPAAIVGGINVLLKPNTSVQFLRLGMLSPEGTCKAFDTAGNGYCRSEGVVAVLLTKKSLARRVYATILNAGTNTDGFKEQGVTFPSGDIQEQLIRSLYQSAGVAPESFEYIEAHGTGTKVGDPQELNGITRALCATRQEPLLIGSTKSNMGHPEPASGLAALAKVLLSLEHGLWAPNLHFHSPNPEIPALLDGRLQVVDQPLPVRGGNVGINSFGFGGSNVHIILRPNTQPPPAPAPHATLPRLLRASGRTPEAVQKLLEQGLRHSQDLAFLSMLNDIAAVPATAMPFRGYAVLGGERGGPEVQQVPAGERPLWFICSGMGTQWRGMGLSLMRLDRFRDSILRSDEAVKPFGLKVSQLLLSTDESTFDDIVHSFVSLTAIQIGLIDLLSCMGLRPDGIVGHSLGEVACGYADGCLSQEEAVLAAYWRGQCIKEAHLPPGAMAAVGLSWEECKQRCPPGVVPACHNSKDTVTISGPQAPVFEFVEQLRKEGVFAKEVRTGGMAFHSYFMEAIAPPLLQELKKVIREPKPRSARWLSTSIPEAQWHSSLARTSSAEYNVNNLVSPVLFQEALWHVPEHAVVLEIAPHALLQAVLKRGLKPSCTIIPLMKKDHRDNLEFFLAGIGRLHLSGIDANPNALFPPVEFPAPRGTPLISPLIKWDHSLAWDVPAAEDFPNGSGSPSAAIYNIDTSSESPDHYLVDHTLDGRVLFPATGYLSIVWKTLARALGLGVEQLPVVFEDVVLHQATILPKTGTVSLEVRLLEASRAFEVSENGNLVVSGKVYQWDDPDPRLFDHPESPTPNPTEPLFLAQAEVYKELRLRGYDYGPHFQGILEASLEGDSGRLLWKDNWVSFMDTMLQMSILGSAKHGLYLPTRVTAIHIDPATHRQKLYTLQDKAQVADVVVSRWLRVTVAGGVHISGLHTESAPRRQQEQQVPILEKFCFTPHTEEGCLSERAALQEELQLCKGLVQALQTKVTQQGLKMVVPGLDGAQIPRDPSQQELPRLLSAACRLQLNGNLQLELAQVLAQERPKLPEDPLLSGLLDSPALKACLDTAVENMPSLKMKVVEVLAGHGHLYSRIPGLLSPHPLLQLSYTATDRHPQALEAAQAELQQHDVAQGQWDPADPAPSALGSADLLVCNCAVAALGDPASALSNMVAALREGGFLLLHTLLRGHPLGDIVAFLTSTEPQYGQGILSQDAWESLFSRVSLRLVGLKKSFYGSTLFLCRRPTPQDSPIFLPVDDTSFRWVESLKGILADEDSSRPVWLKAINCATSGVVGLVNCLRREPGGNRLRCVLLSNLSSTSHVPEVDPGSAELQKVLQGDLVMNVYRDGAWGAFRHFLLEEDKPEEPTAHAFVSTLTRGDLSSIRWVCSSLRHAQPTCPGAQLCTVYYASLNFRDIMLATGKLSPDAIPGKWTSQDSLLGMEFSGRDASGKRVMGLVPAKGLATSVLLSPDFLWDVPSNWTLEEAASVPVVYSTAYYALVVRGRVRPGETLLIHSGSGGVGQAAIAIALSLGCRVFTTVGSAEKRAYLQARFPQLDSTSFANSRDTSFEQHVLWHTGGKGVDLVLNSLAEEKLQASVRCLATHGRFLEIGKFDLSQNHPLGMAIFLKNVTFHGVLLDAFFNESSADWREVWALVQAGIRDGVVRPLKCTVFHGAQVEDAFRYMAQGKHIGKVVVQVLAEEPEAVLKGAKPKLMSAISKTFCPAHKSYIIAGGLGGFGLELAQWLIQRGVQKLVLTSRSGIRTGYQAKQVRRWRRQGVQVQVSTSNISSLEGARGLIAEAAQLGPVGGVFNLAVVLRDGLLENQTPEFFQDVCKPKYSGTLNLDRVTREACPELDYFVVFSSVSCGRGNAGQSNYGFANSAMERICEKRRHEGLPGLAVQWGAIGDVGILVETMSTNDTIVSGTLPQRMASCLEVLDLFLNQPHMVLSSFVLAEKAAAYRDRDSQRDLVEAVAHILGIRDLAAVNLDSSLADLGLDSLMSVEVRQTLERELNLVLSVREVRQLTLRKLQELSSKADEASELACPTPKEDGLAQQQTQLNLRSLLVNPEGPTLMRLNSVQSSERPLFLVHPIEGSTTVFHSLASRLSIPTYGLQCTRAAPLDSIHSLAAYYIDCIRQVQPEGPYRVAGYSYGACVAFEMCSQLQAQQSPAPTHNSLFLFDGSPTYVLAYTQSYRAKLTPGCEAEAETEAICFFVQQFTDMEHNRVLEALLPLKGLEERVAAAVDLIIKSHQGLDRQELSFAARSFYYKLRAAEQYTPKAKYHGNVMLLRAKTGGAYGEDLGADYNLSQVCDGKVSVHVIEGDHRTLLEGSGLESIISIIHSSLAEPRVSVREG

[2] = biological target: T2, Fatty acid synthase (Gallus gallus, UniProt P12276); test: Inhibition of chicken liver FASN ketoreductase activity
[3] = biological target: T3, ATP-citrate synthase (Homo sapiens, UniProt P53396); test: Inhibition of human recombinant ACLY
T3 sequence (P53396 whole entry): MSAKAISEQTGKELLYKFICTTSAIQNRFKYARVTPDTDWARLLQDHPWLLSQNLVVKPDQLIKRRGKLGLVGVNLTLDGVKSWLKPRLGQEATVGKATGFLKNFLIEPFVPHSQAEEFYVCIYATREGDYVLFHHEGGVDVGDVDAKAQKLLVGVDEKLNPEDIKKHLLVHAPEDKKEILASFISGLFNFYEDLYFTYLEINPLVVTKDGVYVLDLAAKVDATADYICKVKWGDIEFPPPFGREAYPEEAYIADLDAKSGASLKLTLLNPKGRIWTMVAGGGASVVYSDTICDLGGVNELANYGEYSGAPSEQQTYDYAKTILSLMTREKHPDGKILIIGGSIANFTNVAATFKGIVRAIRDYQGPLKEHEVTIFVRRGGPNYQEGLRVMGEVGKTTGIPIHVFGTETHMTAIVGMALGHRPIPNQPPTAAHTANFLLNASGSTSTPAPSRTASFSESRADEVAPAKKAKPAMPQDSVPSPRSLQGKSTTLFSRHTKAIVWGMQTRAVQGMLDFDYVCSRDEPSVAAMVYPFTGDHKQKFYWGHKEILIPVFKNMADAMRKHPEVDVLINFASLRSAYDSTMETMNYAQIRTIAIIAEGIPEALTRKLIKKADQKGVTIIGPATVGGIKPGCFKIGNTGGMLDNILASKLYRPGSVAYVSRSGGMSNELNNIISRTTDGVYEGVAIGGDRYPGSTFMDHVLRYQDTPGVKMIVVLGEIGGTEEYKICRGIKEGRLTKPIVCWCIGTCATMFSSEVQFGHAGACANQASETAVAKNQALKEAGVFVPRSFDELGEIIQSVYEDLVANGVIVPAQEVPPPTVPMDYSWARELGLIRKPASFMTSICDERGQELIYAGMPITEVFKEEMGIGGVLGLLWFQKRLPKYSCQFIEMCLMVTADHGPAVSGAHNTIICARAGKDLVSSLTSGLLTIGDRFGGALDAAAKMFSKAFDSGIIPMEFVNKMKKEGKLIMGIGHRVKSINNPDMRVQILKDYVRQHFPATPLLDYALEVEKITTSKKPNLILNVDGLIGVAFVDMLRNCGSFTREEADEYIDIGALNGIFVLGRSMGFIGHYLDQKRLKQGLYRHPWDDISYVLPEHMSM

[4] = biological target: T1, Fatty acid synthase; conditions: SK-BR-3, 22.4 uM
Description: Inhibition of FASN in human SKBR3 cells at 22.4 uM

[5] = biological target: T1, Fatty acid synthase; conditions: SK-BR-3, 179 uM
Description: Inhibition of FASN in human SKBR3 cells at 179 uM

[6] = Inhibition of rat liver ACC
[7] = biological target: T2, Fatty acid synthase; test: Inhibition of chicken liver FASN
[8] = Inhibition of duck liver FASN; design: species or system Anas platyrhynchos
[9] = Inhibition of duck liver FASN ketoreductase activity; design: species or system Anas platyrhynchos
[10] = biological target: T4, ATP-citrate synthase (Rattus norvegicus, UniProt P16638)
T4 sequence (P16638 whole entry): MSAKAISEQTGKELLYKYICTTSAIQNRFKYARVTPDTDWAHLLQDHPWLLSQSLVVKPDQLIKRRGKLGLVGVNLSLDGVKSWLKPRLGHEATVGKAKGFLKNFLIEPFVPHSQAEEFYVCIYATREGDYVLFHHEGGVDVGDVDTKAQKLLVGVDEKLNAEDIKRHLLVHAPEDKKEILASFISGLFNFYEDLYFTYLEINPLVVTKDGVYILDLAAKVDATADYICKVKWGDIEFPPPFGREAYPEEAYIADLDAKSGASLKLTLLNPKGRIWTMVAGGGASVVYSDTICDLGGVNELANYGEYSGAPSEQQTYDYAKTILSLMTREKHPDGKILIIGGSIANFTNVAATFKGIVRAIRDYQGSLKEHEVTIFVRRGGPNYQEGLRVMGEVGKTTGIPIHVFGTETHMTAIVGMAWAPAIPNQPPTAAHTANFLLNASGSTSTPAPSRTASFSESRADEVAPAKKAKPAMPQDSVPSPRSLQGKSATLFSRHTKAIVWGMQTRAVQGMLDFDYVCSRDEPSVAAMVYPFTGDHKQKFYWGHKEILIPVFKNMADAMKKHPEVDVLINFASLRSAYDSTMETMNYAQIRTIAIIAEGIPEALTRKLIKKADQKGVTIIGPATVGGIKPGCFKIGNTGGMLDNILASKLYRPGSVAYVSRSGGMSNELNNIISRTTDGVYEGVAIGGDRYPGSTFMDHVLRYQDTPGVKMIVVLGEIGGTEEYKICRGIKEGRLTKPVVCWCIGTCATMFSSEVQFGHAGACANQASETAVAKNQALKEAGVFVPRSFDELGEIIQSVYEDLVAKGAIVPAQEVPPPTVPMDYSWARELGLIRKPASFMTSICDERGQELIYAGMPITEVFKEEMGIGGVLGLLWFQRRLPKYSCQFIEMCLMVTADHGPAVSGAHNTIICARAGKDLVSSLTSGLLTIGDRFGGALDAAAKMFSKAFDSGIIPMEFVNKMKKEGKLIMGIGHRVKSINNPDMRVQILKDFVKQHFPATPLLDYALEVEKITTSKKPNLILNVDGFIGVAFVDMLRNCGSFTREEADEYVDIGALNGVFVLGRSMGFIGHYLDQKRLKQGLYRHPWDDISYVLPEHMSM

[11] = biological target: T4, ATP-citrate synthase; test: Inhibition of rat liver ACLY by fluorimetric analysis
[12] = biological target: T1, Fatty acid synthase; test: Inhibition of FASN in human SKBR3 cells at 21 uM after 3 mins by spectrophotometric analysis relative to control; type: cell-based; conditions: SK-BR-3
[13] = biological target: T1, Fatty acid synthase; test: Inhibition of FASN in human SKBR3 cells at 29 uM after 3 mins by spectrophotometric analysis relative to control; type: cell-based; conditions: SK-BR-3
[14] = test system: HepG2; test: Cytotoxicity against human HepG2 cells by MTT assay; type: functional, cell-based
[15] = Competitive inhibition of Escherichia coli ACC carboxyltransferase activity using malonyl coA as substrate
[16] = test system: Escherichia coli; test: Ratio of biotin Ki to compound Ki for Escherichia coli ACC
[17] = Inhibition of rat liver ACC using acetyl coA as substrate and [14C]NaHCO3 incubated for 30 mins prior to substrate addition by liquid scintillation counting
[18] = biological target: T1, Fatty acid synthase; test: Inhibition of FASN in human A375 cells; type: cell-based, A-375
Target sequence in this assay (P49327 whole entry, the tested form may be a part): as the sequence (P49327 whole entry, the tested form may be a part) above

[19] = biological target: T1, Fatty acid synthase; test: Inhibition of FASN in human HepG2 cells; type: cell-based
Target sequence in this assay (P49327 whole entry, the tested form may be a part): as the sequence (P49327 whole entry, the tested form may be a part) above

T2 sequence (P12276 whole entry): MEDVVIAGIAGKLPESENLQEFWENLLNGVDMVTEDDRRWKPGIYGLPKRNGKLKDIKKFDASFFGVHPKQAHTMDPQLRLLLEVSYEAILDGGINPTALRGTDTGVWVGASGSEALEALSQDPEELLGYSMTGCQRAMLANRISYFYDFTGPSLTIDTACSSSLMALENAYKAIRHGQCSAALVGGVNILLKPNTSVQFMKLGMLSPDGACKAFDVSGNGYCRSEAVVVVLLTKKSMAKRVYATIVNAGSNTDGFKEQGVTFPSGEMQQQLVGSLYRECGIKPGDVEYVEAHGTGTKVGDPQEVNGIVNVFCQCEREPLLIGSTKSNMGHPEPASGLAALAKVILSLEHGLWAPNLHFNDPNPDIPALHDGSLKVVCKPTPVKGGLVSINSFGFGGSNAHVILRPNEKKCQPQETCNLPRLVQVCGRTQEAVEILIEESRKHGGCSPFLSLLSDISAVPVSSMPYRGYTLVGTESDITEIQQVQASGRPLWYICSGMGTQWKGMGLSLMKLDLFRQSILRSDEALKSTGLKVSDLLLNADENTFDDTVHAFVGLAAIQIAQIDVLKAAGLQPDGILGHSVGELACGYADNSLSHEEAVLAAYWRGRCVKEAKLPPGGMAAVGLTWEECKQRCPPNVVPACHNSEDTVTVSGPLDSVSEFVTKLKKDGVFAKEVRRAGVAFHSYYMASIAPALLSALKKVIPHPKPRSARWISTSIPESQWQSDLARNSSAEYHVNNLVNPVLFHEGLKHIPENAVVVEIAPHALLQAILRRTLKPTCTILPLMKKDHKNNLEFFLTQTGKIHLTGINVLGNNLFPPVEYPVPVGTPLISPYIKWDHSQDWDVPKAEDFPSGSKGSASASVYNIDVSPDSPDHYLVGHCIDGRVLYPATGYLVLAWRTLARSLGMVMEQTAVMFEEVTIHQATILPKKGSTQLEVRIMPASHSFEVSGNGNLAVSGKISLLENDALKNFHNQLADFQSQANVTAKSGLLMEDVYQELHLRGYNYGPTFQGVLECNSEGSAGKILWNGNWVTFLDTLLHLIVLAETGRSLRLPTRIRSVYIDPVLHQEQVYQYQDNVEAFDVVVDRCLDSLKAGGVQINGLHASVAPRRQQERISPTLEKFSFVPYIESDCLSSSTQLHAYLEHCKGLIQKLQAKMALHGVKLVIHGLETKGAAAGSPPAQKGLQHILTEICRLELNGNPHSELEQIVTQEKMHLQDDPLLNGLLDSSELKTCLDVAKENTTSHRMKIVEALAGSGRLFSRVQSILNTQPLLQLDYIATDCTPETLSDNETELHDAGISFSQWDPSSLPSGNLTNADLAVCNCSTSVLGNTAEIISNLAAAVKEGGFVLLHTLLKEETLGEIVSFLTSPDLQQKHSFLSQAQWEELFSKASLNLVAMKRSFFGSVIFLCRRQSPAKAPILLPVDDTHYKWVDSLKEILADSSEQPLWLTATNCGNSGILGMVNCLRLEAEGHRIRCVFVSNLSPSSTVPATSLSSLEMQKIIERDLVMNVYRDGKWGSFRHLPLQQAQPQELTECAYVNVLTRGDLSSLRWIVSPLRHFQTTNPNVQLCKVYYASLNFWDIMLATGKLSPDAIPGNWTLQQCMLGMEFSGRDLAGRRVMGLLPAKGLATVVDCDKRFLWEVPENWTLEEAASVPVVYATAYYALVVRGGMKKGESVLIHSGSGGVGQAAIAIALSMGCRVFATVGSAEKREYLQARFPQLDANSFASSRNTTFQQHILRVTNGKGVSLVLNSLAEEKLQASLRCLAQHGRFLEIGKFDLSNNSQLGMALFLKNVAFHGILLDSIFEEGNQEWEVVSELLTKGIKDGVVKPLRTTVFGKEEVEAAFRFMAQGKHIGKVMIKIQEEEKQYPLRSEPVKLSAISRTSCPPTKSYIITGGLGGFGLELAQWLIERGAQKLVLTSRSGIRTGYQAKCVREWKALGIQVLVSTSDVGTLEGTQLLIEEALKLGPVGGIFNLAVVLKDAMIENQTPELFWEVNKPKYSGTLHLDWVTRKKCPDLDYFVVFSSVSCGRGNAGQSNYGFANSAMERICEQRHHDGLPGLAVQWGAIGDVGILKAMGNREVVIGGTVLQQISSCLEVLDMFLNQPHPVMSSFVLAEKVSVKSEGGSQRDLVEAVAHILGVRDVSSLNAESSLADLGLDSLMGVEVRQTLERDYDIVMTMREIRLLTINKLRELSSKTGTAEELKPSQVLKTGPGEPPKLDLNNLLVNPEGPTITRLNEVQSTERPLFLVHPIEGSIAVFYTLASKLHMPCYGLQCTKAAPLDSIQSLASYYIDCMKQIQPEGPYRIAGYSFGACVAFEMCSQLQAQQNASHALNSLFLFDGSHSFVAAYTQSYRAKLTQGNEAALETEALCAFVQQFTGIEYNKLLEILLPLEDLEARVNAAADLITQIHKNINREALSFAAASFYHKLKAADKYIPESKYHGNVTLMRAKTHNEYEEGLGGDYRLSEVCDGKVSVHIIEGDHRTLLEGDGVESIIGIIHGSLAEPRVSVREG

H-RKQEEDEDEEQQRE-OH
IC50 [1]: 11 µM | IC50 [2]: 16 µM

Cc1cn(-c2cc(Cl)ccc2CCCCCC[C@H](O)C[C@@](O)(CC(=O)O)C(=O)O)cc1C (stereo in doubt; 135)
Ki [3]: 0.34 µM

H-KNPQLR-OH
IC50 [2]: 80 µM

CCCCC/C=C\C/C=C\C/C=C\CCCCC(=O)O
inhibition [4]: 41% | inhibition [5]: 78%

CC(C)(C)c1ccc(N2C[C@@H](COc3ccc(C(=O)SCCNC(=O)CCNC(=O)[C@H](O)C(C)(C)COP(=O)(O)OP(=O)(O)OC[C@H]4O[C@@H](n5cnc6c(N)ncnc65)[C@H](O)[C@@H]4OP(=O)(O)O)cc3)CC2=O)cc1
Ki [6]: 69.2 µM

O=C(O[C@@H]1Cc2c(O)cc(O)cc2O[C@@H]1c1cc(O)c(O)c(O)c1)c1cc(O)c(O)c(O)c1 [EPIGALOCATECHIN GALLATE]
IC50 [7]: 52 µM | IC50 [2]: 100 µM

O=C(/C=C/c1ccc(O)cc1)c1ccc(O)cc1O [ISOLIQUIRITIGENIN]
IC50 [8]: 8.8 µM | IC50 [9]: 141 µM

Cc1cc(O)c2c(c1)Cc1cc(O)c(Cl)c(O)c1C2=O
IC50 [10]: 0.283 µM

O=C1C[C@@](O)(C(=O)O)[C@@H](C(=O)O)O1
Ki [11]: 50 µM

Oc1ccc(/C=C/c2cc(O)cc(O)c2)cc1 [RESVERATROL]
IC50 [8]: 8.5 µM | IC50 [9]: 120 µM

O=C(Oc1cc(OC(=O)c2cc(O)c(O)c(O)c2)c2ccccc2c1)c1cc(O)c(O)c(O)c1
inhibition [12]: 90%

C[C@H]1[C@H](C)CC[C@]2(C(=O)O)CC[C@]3(C)C(=CC[C@@H]4[C@@]5(C)CC[C@H](O)C(C)(C)[C@@H]5CC[C@]43C)[C@H]12 [URSOLIC ACID]
IC50 [7]: 13.1 µM | IC50 [2]: 59.3 µM

CC(Cc1ccc(O)c(O)c1)C(C)Cc1ccc(O)c(O)c1 (stereo not given) [NORDIHYDROGUAIARETIC ACID]
IC50 [8]: 9.3 µM | IC50 [9]: 427 µM

Cc1c(-c2cc3ccccc3o2)oc(=O)c(C)c1O
Ki [6]: 3.3 µM

O=C(Oc1ccc(OC(=O)c2cc(O)c(O)c(O)c2)c2ccccc12)c1cc(O)c(O)c(O)c1
inhibition [13]: 69%

O=c1c(O)c(-c2ccc(O)c(O)c2)oc2cc(O)ccc12 [FISETIN]
IC50 [14]: > 400 µM | IC50 [8]: 18.8 µM

O=C(O)C[C@](O)(C[C@@H](O)CCCCCC1c2ccccc2-c2cc(Cl)ccc21)C(=O)O (mixture of isomers)
Ki [3]: 0.22 µM

Cc1cn(-c2cc(Cl)ccc2CCCCCC[C@H](O)C[C@@](O)(CC(=O)O)C(=O)O)cc1C (racemic)
Ki [3]: 0.3 µM

CC(C)(COP(=O)(O)OP(=O)(O)OC[C@H]1O[C@@H](n2cnc3c(N)ncnc32)[C@H](O)[C@@H]1OP(=O)(O)O)[C@H](O)C(=O)NCCC(=O)NCCSC(=O)CC(=O)N1C(=O)N[C@@H]2[C@H](CCCCC(=O)OCc3ccccc3)SC[C@@H]21
Ki [15]: 23 µM | Ratio Ki [16]: 350

Cc1cn(-c2cc(Cl)ccc2CCCCCC[C@H](O)C[C@@](O)(CC(=O)O)C(=O)O)cc1C (stereo in doubt; 134)
Ki [3]: 0.58 µM

O=c1c(O[C@@H]2O[C@@H](CO)[C@H](O)[C@H]2O)c(-c2ccc(O)c(O)c2)oc2cc(O)cc(O)c12 [AVICULARIN]
IC50 [7]: 6.15 µM

H-EITPEKNPQLR-OH
IC50 [1]: 10 µM | IC50 [2]: 27 µM

O=C(O)[C@H](O)[C@](O)(C[C@@H](O)CCCCCCc1ccc(Cl)cc1Cl)C(=O)O (racemic)
Ki [3]: 0.62 µM

CC(C)(CCCCCC(O)CCCCCC(C)(C)C(=O)SCCNC(=O)CCNC(=O)[C@H](O)C(C)(C)COP(=O)(O)OP(=O)(O)OC[C@H]1O[C@@H](n2cnc3c(N)ncnc32)[C@H](O)[C@@H]1OP(=O)(O)O)C(=O)O (stereo not given in full)
IC50 [17]: 29 µM

O=c1c(O)c(-c2ccc(O)c(O)c2)oc2cc(O)cc(O)c12 [QUERCETIN]
IC50 [14]: 30.9 µM | IC50 [8]: 4.29 µM

O=C(O[C@@H]1Cc2c(O)cc(O)cc2O[C@H]1c1ccc(O)c(O)c1)c1cc(O)c(O)c(O)c1 [(-)-CATECHINGALLATE]
IC50 [8]: 3.4 µM | IC50 [9]: 30.1 µM

O=c1c(O)c(-c2ccc(O)cc2)oc2cc(O)cc(O)c12 [KAEMPFEROL]
IC50 [14]: > 400 µM | IC50 [8]: 10.4 µM

O=C1C(c2ccc(O)c(O)c2)=c2c(c3c(n2CCc2ccc(O)cc2)=C(c2ccc(O)c(O)c2)C(=O)c2cc(O)c(O)cc2-3)-c2cc(O)c(O)cc21 [PURPURONE]
IC50 [10]: 7 µM

O=C(O)C[C@@]1(C(=O)O)O[C@H]1C(=O)O
Ki [10]: 18 µM

O=C(O)C[C@](O)(C[C@@H](O)CCCCCn1c2ccccc2c2cc(Cl)ccc21)C(=O)O (racemic)
Ki [3]: 0.71 µM

O=c1c(O)c(-c2ccc(O)cc2O)oc2cc(O)cc(O)c12 [MORIN]
IC50 [8]: 2.3 µM | IC50 [9]: 26 µM

C/C=C/C/C=C/CCC(=O)[C@H]1O[C@H]1C(N)=O [CERULENIN]
IC50 [18]: 21.9 µM

O=C(O)C[C@](O)(C[C@@H](O)CCCCCn1c(-c2ccccc2)cc2cc(Cl)ccc21)C(=O)O (racemic)
Ki [3]: 0.37 µM

O=C(O)C[C@@](O)(C(=O)O)[C@H](O)C(=O)O
Ki [11]: 8 µM

O=c1cc(-c2ccc(O)c(O)c2)oc2cc(O)cc(O)c12 [LUTEOLIN]
IC50 [14]: 71.2 µM | IC50 [8]: 2.52 µM

C=C/C(C)=C/[C@]1(C)SC(=O)C(C)=C1O
IC50 [19]: 208 µM

C=C/C(C)=C/[C@]1(C)SC(=O)C=C1O
IC50 [19]: 96.8 µM

C=C1C(=O)O[C@H](CCCCCCCC)[C@H]1C(=O)O (relative stereo)
IC50 [1]: 59 µM | IC50 [18]: 32.4 µM | IC50 [2]: 80 µM
